# In patent publication EP0176033A2, “Isoxazolecarboxylic-acid derivatives, their preparation and use” (BASF Aktiengesellschaft, priority 1984, dated 1986):
# Test system: Rhino-Maus
# Experiment: Rhino mouse model: reduction of utriculus diameter after topical application (comedolytic activity)
# Type: in vivo
# Settings: 100 µl on the back, once daily, 5 days per week, 2 weeks, versus untreated control group
# Excerpt: Die antiarthritische Wirkung der erfindungsgemäßen Verbindungen kann in üblicher Weise im Tierexperiment im Adjuvans-Arthritis-Modell bestimmt werden. Die dermatologische Aktivität, beispielsweise für die Behandlung von Akne, kann u. a. durch die komedolytische Aktivität und die Fähigkeit nachgewiesen werden, die Anzahl der Zysten im Modell der Rhino--Maus zu reduzieren.
# Diese Methode ist von L. H. Kligman et al in The Journal of Investigative Dermatology 73, 354 - 358 (1979) und von J.A. Mezick et al. in "Models of Dermatalogy" (Ed. Maibach, Läwe), Vol. 2, S. 59-63, Karger, Basel 1985) beschrieben.
# Die Testsubstanz wurde in einem geeigneten Vehikel auf der gesamten Rückenpartie der Rhino-Maus topisch aufgetragen (100 µl), einmal täglich, an fünf aufeinanderfolgenden Tagen pro Woche, zwei Wochen lang ungefähr 72 h nach der letzten Behandlung wurde die dorsale Haut entfernt und in 0,5 Xiger Essigsäure 18 h bei 4-6°C belassen. Danach wurde eine ca. 2 x 5 cm^2 große Fläche herausgeschnitten, die Epidermis abgeschält, auf einen Objektträger aufgebracht (mit der dermalen Seite nach oben) und mittels Alkohol/Xylol wasserfrei gespült, bis die Epidermis durchsichtig erscheint. Die Probe wurde durch Uberziehen mit Permount fixiert und mikroskopisch ausgewertet. […]
smiles,measurement,setting,value
"C/C(=C\c1cc(C(=O)O)no1)c1ccc2c(c1)C(C)(C)CCC2(C)C [Beispiel 17a, (E)-5-[2-(5,5,8,8-Tetramethyl-5,6,7,8-tetrahydro-naphth--2-yl)-1-propenyl]isoxazol-3-carbonsäure]",Reduktion des Utriculusdurchmessers in %,"Dosis 0,2 mg/ml","45,1%"
same,Reduktion des Utriculusdurchmessers in %,Dosis 2 mg/ml,"75,6%"
